Reference: patent US11091501B2, “Heterocyclic compounds as RSV inhibitors” (Enanta Pharmaceuticals, Inc., priority 2017, dated 2021)

These molecules were tested on Human RSV-A (“Long” strain) (assay: RSV in vitro cytoprotection assay (CPE, ATPlite) in HEp-2 cells). Conditions: human respiratory syncytial virus, 96 h; HEp-2 cells, 4-day incubation, ATPlite readout; read-out: Human RSV-A (“Long” strain) EC50.
Assay type: cell-based
Method in brief: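 HEp-2 cells (8,000/well) given 2-fold serial compound dilutions in duplicate, then infected with sucrose-stabilised RSV-A Long stock. After 4 days, cell viability read by ATPlite luminescence, with a parallel uninfected plate for cytotoxicity. EC50 binned A<0.01 μM, B 0.01-0.05 μM, C>0.05 μM.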
With `CCOCCNc1ncccc1C(=O)Nc1ccc(C(=O)N2CCc3cc(C(=O)Nc4c(F)cccc4F)sc3-c3ccc(F)cc32)cc1` [Example 54] the EC50 was > 50 nM.
For `O=C(Nc1ccc(C(=O)N2CCc3c(sc(C(=O)Nc4c(F)cccc4F)c3F)-c3ccccc32)cc1)c1cccnc1N1CC2(CCOCC2)C1` [Example 88], the EC50 was < 10 nM.
`Cc1cnc(N2CC3(CCOCC3)C2)c(C(=O)Nc2ccc(C(=O)N3CCc4cc(-c5ccc[nH]c5=O)sc4-c4ccc(F)cc43)cc2)c1` [Example 182] was tested, and the EC50 was < 10 nM.
